What was measured:
MDCK cells = details: minimal change in cell morphology after 48 h incubation
[1] = tested on: A/Guangzhou/GIRD/07/2009 (H1N1); assay: microbe, parasite or virus in culture; assay type: cell-based; details: Influenza A virus, H1N1, MDCK, 48 h, read-out: Activity (EC50, μM)
[2] = tested on: influenza virus (A/PR/8/34)

SMILES: NC12CC3CC(CC(C3)C1)C2 [Amantadine, amantadine, reference compound]
- MCC (minimum cytotoxic concentration) (MDCK cells): >100 µM

SMILES: C[C@H]1[C@H](NCc2cncnc2)C[C@H]2C[C@@H]1C2(C)C [Compound 1]
- MCC (minimum cytotoxic concentration) (MDCK cells): >100 µM
- EC50 [1]: > 50 µM

SMILES: C[C@H]1[C@H](NCc2cnccn2)C[C@H]2C[C@@H]1C2(C)C [Compound 2]
- MCC (minimum cytotoxic concentration) (MDCK cells): >100 µM
- EC50 [1]: > 50 µM

SMILES: Cc1n[nH]cc1CN[C@@H]1C[C@H]2C[C@@H]([C@H]1C)C2(C)C [Compound 3]
- MCC (minimum cytotoxic concentration) (MDCK cells): >100 µM
- EC50 [1]: > 50 µM

SMILES: C[C@H]1[C@H](NCc2ccoc2)C[C@H]2C[C@@H]1C2(C)C [Compound 4]
- MCC (minimum cytotoxic concentration) (MDCK cells): >100 µM

SMILES: C[C@H]1[C@H](NCc2ccco2)C[C@H]2C[C@@H]1C2(C)C [Compound 5]
- MCC (minimum cytotoxic concentration) (MDCK cells): 50 µM
- EC50 [1]: > 50 µM

SMILES: C[C@H]1[C@H](NCc2ccsc2)C[C@H]2C[C@@H]1C2(C)C [Compound 6]
- MCC (minimum cytotoxic concentration) (MDCK cells): 50 µM

SMILES: C[C@H]1[C@H](NCc2cccs2)C[C@H]2C[C@@H]1C2(C)C [Compound 7]
- MCC (minimum cytotoxic concentration) (MDCK cells): 25 µM

SMILES: C[C@H]1[C@H](NCc2nccs2)C[C@H]2C[C@@H]1C2(C)C [Compound 8]
- MCC (minimum cytotoxic concentration) (MDCK cells): >100 µM
- EC50 [1]: > 50 µM

SMILES: C[C@H]1[C@H](NCc2cncs2)C[C@H]2C[C@@H]1C2(C)C [Compound 9]
- MCC (minimum cytotoxic concentration) (MDCK cells): >100 µM
- EC50 [1]: > 50 µM

SMILES: Cc1csc(CN[C@@H]2C[C@H]3C[C@@H]([C@H]2C)C3(C)C)n1 [Compound 10]
- MCC (minimum cytotoxic concentration) (MDCK cells): >100 µM

SMILES: Cc1ccsc1CN[C@@H]1C[C@H]2C[C@@H]([C@H]1C)C2(C)C [Compound 11]
- MCC (minimum cytotoxic concentration) (MDCK cells): 10 µM
- EC50 [1]: > 0.78 µM

SMILES: CCc1ccsc1CN[C@@H]1C[C@H]2C[C@@H]([C@H]1C)C2(C)C [Compound 12]
- MCC (minimum cytotoxic concentration) (MDCK cells): 25 µM
- EC50 [1]: > 0.78 µM

SMILES: C[C@H]1[C@H](NCc2sccc2Br)C[C@H]2C[C@@H]1C2(C)C [Compound 13]
- MCC (minimum cytotoxic concentration) (MDCK cells): 50 µM
- EC50 [1]: > 0.78 µM

SMILES: CCCc1ccsc1CN[C@@H]1C[C@H]2C[C@@H]([C@H]1C)C2(C)C [Compound 14]
- MCC (minimum cytotoxic concentration) (MDCK cells): 50 µM
- EC50 [1]: > 0.78 µM

SMILES: CCCCc1ccsc1CN[C@@H]1C[C@H]2C[C@@H]([C@H]1C)C2(C)C [Compound 15]
- MCC (minimum cytotoxic concentration) (MDCK cells): 25 µM

SMILES: CCOc1ccsc1CN[C@@H]1C[C@H]2C[C@@H]([C@H]1C)C2(C)C [Compound 16]
- MCC (minimum cytotoxic concentration) (MDCK cells): 50 µM
- EC50 [1]: > 0.78 µM

SMILES: C=Cc1ccsc1CN[C@@H]1C[C@H]2C[C@@H]([C@H]1C)C2(C)C [Compound 17]
- MCC (minimum cytotoxic concentration) (MDCK cells): 50 µM

SMILES: C[C@H]1[C@H](NCc2sccc2C2CC2)C[C@H]2C[C@@H]1C2(C)C [Compound 18]
- inhibition of virus-induced aggregation of chicken erythrocytes [2]: did not inhibit

SMILES: C[C@H]1[C@H](NCc2sccc2C2CCCC2)C[C@H]2C[C@@H]1C2(C)C [Compound 19]
- MCC (minimum cytotoxic concentration) (MDCK cells): 12.5 µM

SMILES: C[C@H]1[C@H](NCc2sccc2C2CCCCC2)C[C@H]2C[C@@H]1C2(C)C [Compound 20]
- MCC (minimum cytotoxic concentration) (MDCK cells): 1.56 µM
- EC50 [1]: > 0.78 µM

SMILES: C[C@H]1[C@H](NCc2sccc2-c2ccsc2)C[C@H]2C[C@@H]1C2(C)C [Compound 21]
- MCC (minimum cytotoxic concentration) (MDCK cells): 12.5 µM
- EC50 [1]: > 0.78 µM

SMILES: C[C@H]1[C@H](NCc2sccc2-c2ccccc2)C[C@H]2C[C@@H]1C2(C)C [Compound 22]
- MCC (minimum cytotoxic concentration) (MDCK cells): 12.5 µM
- EC50 [1]: > 0.78 µM

SMILES: C[C@H]1[C@H](NCc2cc(Br)cs2)C[C@H]2C[C@@H]1C2(C)C [Compound 23]
- MCC (minimum cytotoxic concentration) (MDCK cells): 6.25 µM

SMILES: Cc1csc(CN[C@@H]2C[C@H]3C[C@@H]([C@H]2C)C3(C)C)c1 [Compound 24]
- MCC (minimum cytotoxic concentration) (MDCK cells): 12.5 µM

SMILES: CCc1csc(CN[C@@H]2C[C@H]3C[C@@H]([C@H]2C)C3(C)C)c1 [Compound 25]
- MCC (minimum cytotoxic concentration) (MDCK cells): 25 µM
- EC50 [1]: > 0.78 µM

SMILES: CCCc1csc(CN[C@@H]2C[C@H]3C[C@@H]([C@H]2C)C3(C)C)c1 [Compound 26]
- MCC (minimum cytotoxic concentration) (MDCK cells): 12.5 µM
- EC50 [1]: > 0.78 µM

SMILES: CCCCc1csc(CN[C@@H]2C[C@H]3C[C@@H]([C@H]2C)C3(C)C)c1 [Compound 27]
- MCC (minimum cytotoxic concentration) (MDCK cells): 12.5 µM

SMILES: C=Cc1csc(CN[C@@H]2C[C@H]3C[C@@H]([C@H]2C)C3(C)C)c1 [Compound 28]
- MCC (minimum cytotoxic concentration) (MDCK cells): 6.25 µM
- EC50 [1]: > 0.78 µM

SMILES: C=C(C)c1csc(CN[C@@H]2C[C@H]3C[C@@H]([C@H]2C)C3(C)C)c1 [Compound 29]
- MCC (minimum cytotoxic concentration) (MDCK cells): 25 µM
- EC50 [1]: > 0.78 µM

SMILES: C[C@H]1[C@H](NCc2cc(C3CC3)cs2)C[C@H]2C[C@@H]1C2(C)C [Compound 30]
- MCC (minimum cytotoxic concentration) (MDCK cells): 25 µM

SMILES: C[C@H]1[C@H](NCc2cc(C3CCCC3)cs2)C[C@H]2C[C@@H]1C2(C)C [Compound 31]
- MCC (minimum cytotoxic concentration) (MDCK cells): 1.56 µM
- EC50 [1]: > 0.78 µM

SMILES: C[C@H]1[C@H](NCc2cc(C3CCCCC3)cs2)C[C@H]2C[C@@H]1C2(C)C [Compound 32]
- MCC (minimum cytotoxic concentration) (MDCK cells): 0.78 µM
- EC50 [1]: > 0.78 µM

SMILES: C[C@H]1[C@H](NCc2cc(-c3ccsc3)cs2)C[C@H]2C[C@@H]1C2(C)C [Compound 33]
- MCC (minimum cytotoxic concentration) (MDCK cells): 25 µM
- EC50 [1]: > 0.78 µM

SMILES: C[C@H]1[C@H](NCc2cc(-c3ccccc3)cs2)C[C@H]2C[C@@H]1C2(C)C [Compound 34]
- MCC (minimum cytotoxic concentration) (MDCK cells): 5 µM
- EC50 [1]: > 0.78 µM

SMILES: C[C@H]1[C@H](NCc2ccc(Cl)s2)C[C@H]2C[C@@H]1C2(C)C [Compound 35]
- MCC (minimum cytotoxic concentration) (MDCK cells): 25 µM
- EC50 [1]: > 0.78 µM

SMILES: Cc1ccc(CN[C@@H]2C[C@H]3C[C@@H]([C@H]2C)C3(C)C)s1 [Compound 36]
- MCC (minimum cytotoxic concentration) (MDCK cells): 0.78 µM
- EC50 [1]: > 0.78 µM

SMILES: C[C@H]1[C@H](NCc2ccc(Br)s2)C[C@H]2C[C@@H]1C2(C)C [Compound 37]
- MCC (minimum cytotoxic concentration) (MDCK cells): 43 µM
- EC50 [1]: > 0.78 µM

SMILES: CCc1ccc(CN[C@@H]2C[C@H]3C[C@@H]([C@H]2C)C3(C)C)s1 [Compound 38]
- MCC (minimum cytotoxic concentration) (MDCK cells): 1.56 µM
- EC50 [1]: > 0.78 µM

SMILES: C[C@H]1[C@H](NCc2ccc(C(C)(C)C)s2)C[C@H]2C[C@@H]1C2(C)C [Compound 39]
- MCC (minimum cytotoxic concentration) (MDCK cells): 0.78 µM
- EC50 [1]: > 0.78 µM

SMILES: CSc1ccc(CN[C@@H]2C[C@H]3C[C@@H]([C@H]2C)C3(C)C)s1 [Compound 40]
- MCC (minimum cytotoxic concentration) (MDCK cells): 25 µM
- EC50 [1]: > 0.78 µM

SMILES: C[C@H]1[C@H](NCc2ccc(-c3ccc(Br)s3)s2)C[C@H]2C[C@@H]1C2(C)C [Compound 41]
- MCC (minimum cytotoxic concentration) (MDCK cells): 0.78 µM
- EC50 [1]: > 0.78 µM

— paper PMC6496959 (Journal of medicinal chemistry, 2018)
